Results on 50 compounds are retold here after the OPERA property sets (Mansouri et al. 2018).

What is called logP is the decadic logarithm of the partition coefficient of the neutral form, usually between octanol and water. Lower therefore signals a more hydrophilic compound. The solubility is the dissolved amount per volume that the medium holds. The low end stands for little dissolved substance, the high end for much dissolved substance.

Values after ≈ are worked out from the molar mass of the structure shown.

Conditions in the first data set: not given
As to `CCCN(C)N=O`, the logP worked out at 0.56.

Take `COc1ccc(Cl)c(Cl)c1Cl`: the logP is 3.74.

Take `COC(=O)c1ccccc1S(N)(=O)=O`: the logP worked out at 0.01.

Compound `OCCC(F)(F)C(F)(F)C(F)(F)C(F)(F)C(F)(F)C(F)(F)F` had a logP of 4.54.

Regarding `O=P(OCCCl)(OCCCl)OCCCl`, the solubility is 24500 µM (≈ 7000 µg/mL).

In turn, `O=C1CC(c2ccccc2)Oc2ccccc21` (configuration not stated) gave a logP of 3.14.

As to `CC(Cc1ccc(C(C)(C)C)cc1)CN1C[C@@H](C)O[C@@H](C)C1` (single isomer, unassigned), the logP amounted to 4.93.

The compound `O=C(c1ccccc1)n1ncc2c(=O)[nH]cnc21` gave a logP of 1.2.

Regarding `Nc1cccc2cccc(N)c12`, the logP came out at 1.78.

In turn, `CCn1cc(C(=O)NC(C)C(=O)OC)c(=O)c2ccc(C)nc21` (configuration not stated) yielded a logP of 2.47.

`Cc1cc(Cl)c(Cl)cc1Cc1c(Cl)cccc1Cl` showed a lipophilicity (logP) of 7.15.

On to `CC(=O)N(C)S(=O)(=O)c1ccc(C)cc1`, for which the logP came out at 1.73.

`c1cnc2c(c1)cc1ccc3cccc4ccc2c1c34` yielded a log partition coefficient (logP) of 5.53.

For the compound `CN(C)c1ncc(-c2ccncc2)cc1C#N`, the logP was 2.13.

In turn, `CC(C)(C#N)Nc1nc(Cl)nc(NC2CC2)n1` showed a logP of 1.99.

On to `CSc1ccc(C(N)=S)cc1`, for which the logP came out at 2.01.

Regarding `CCCNC(=O)CCC(NS(=O)(=O)c1ccccc1)C(=O)O` (configuration not stated), the logP was 0.01.

For the compound `CNC(N)=S`, the logP was -0.69.

`CN(C)c1ccc(C=NNC(=N)N)cc1`: the logP is 0.28.

Compound `Nc1cc([N+](=O)[O-])ccc1Cl` came in with a logP of 2.23.

`CCCC(=O)OCN1C(=O)NC(c2ccccc2)(c2ccccc2)C1=O` yielded a logP of 3.34.

Consider `N#CC(C#N)=Cc1ccc(I)o1`, for which the logP was 2.42.

The compound `O=C1CCC(c2ccc[n+]([O-])c2)N1` (configuration not stated) displayed a logP of -1.01.

The compound `Cc1c(Cl)cccc1[N+](=O)[O-]` had a logP of 3.09.

Consider `COc1ccc2[nH]c3c4ccc(Cl)cc4ncc3c2c1`, for which the logP was found to be 4.49.

In turn, `c1ccc(Cn2ccnc2)cc1` returned a logP of 1.6.

In the case of `CCCCN(CC)N=O`, the logP worked out at 1.63.

Regarding `C[C@H](CCC(=O)NCC(=O)O)[C@H]1CC[C@H]2[C@@H]3[C@H](O)C[C@@H]4C[C@H](O)CC[C@]4(C)[C@H]3C[C@H](O)[C@]12C`, the log partition coefficient (logP) turned out to be 1.65.

Regarding `COCCn1cnc2c(=N)n(C)c(=O)[nH]c21`, the lipophilicity (logP) was -0.96.

`CCC(C)CO` (configuration not stated) had a logP of 1.29.

The compound `c1ccc2cc3cc4c(ccc5ccccc54)cc3cc2c1` returned a logP of 6.81.

With `OCCOCCOCCO`, the logP is -1.75.

Consider `NS(=O)(=O)c1nc2ccc([N+](=O)[O-])cc2s1`, for which the logP amounted to 1.36.

Staying with this data set, now noted: 20 °C.
`CCC(Cl)Cl` showed a solubility of 23900 µM (≈ 2700 µg/mL).

`COP(=S)(OC)Oc1nc(Cl)c(Cl)cc1Cl` came in with a solubility of 14.8 µM (≈ 4.76 µg/mL).

Still in this data set, the particulars now being: 23.0 °C.
On to `O=C1C=CC(=O)O1`, for which the log10 OH rate constant (cm³/molecule/s) is -11.8.

The same data set, now with this note: 24 °C.
The compound `c1ccc2cc3ccccc3cc2c1` showed a solubility of 0.244 µM (≈ 0.0434 µg/mL).

Compound `CCCCN(CC)N=O` returned a solubility of 92200 µM (≈ 12000 µg/mL).

Staying with this data set, now noted: 24.0 °C.
Take `C[Si](C)(C)C`: the log10 OH rate constant (cm³/molecule/s) is -12.

The same data set, now with this note: 25 °C.
Regarding `CCCCCCCCOC(=O)COc1ccc(Cl)cc1Cl`, the solubility stood at 0.0951 µM (≈ 0.0317 µg/mL).

The compound `COc1c(O)c(Cl)c(Cl)c(Cl)c1Cl` gave a solubility of 16 µM (≈ 4.2 µg/mL).

In turn, `OCC(CO)(CO)COCC(CO)(CO)CO` registered a solubility of 11000 µM (≈ 2800 µg/mL).

In turn, `Nc1ccc(-c2ccc(N)c(Cl)c2)cc1Cl` returned a solubility of 12.2 µM (≈ 3.1 µg/mL).

Compound `O=[N+]([O-])c1ccc(N=Nc2ccc(O)cc2)cc1` showed a solubility of 16 µM (≈ 3.89 µg/mL).

Consider `c1ccc2cnncc2c1`, for which the solubility was 384000 µM (≈ 50000 µg/mL).

The data set is the same for the next values; noted with them: 25.0 °C.
Compound `CCCCCCCl` showed a log10 OH rate constant (cm³/molecule/s) of -11.4.

For `Cc1ccc(C(C)(C)C)cc1`, the log10 OH rate constant (cm³/molecule/s) is -10.9.

`CC(C)[N+](=O)[O-]` returned a log10 OH rate constant (cm³/molecule/s) of -12.6.

The compound `FC(F)(F)CBr` yielded a log10 OH rate constant (cm³/molecule/s) of -13.7.

`c1ccc2cc3ccccc3cc2c1` had a log10 OH rate constant (cm³/molecule/s) of -9.96.

Compound `CI` showed a log10 OH rate constant (cm³/molecule/s) of -13.1.

Compound `FC(Cl)C(F)(F)Cl` (configuration not stated) came in with a log10 OH rate constant (cm³/molecule/s) of -13.9.
